Data reported in patent US6979471B1, “Composition comprising pharmaceutical/nutraceutical agent and a bio-enhancer obtained from Glycyrrhiza glabra” (Council of Scientific and Industrial Research, priority 2000, dated 2005).

Key:
Assay type in all cases: cell-based
[1] = tested on: Escherichia coli (ATCC 10536); experiment: Broth assay for bio-enhancement of antibiotics: viable cell count, Escherichia coli; conditions: Table 1; for *Folds enhancement in antibiotic activity (a/b): glycyrrhizin 1 μg/ml
[2] = tested on: Mycobacterium smegmatis (ATCC 14468); experiment: Broth assay for bio-enhancement of antibiotics: viable cell count, Mycobacterium smegmatis; conditions: Table 3; for *Folds enhancement in antibiotic activity (a/b): glycyrrhizin 1 μg/ml
Method: (§1) For this, the cells are treated with the bioenhancer/compound for 4 to 8 hours and then washed free of it by centrifugation and washing in sterile water. […] 2. Assay for Bio-Enhancement of Anti-Cancer Agents • a) MCF-7 (Breast cancer cell line is inoculated at a density of about 0.1×10^6 cells in MEM medium in the wells of 24 well plate. • b) The used up medium in these cultures is replaced with fresh medium after 18 hours in each well. • c) The test compound (s) is added at desired concentrations in different wells just after the medium replacement. • d) Observations are recorded on the cell count after 36 hours for which the following steps are required. • i. The medium is removed from the wells. • ii. The wells are rinsed with 1 ml PBS (Phosphate buffer saline). • iii. To each well 500 μl of freshly prepared trypsin solution (0.1% in PBS) is added. • iv. Trypsin solution is removed after 30 seconds and the plate is gently tapped till the cells are released from the plate surface. • v. Fresh 1 ml of MEM growth medium is added and agitated with a pipette to obtain a cell suspension. • vi. 10 μl of cell suspension is taken on the haemocytometer and a cover glass is placed over the counting chamber. • vii. The number of viable cells is counted in 5 big squares and the reading is taken from 5 microscopic fields to determine the average. • viii. The cell count (titre per ml) in the original sample is then calculated as average count×10^3. Composition of Minimum Essential Medium (MEM): 100 ml
(§2) In the next step of elucidation of the enhancer action the applicants experimented with the killing activities of different antibiotics against the bacteria singly and in combination with the test compound glycyrrhizin following the method described above. These experiments are to be considered with assay for bioenhancement of the compounds glycyrrhizin/glycyrrhizic acid and licorice, as described earlier. […] In all the experiments the glycyrrhizin concentration was kept at 1 μg/ml, unless it is specifically mentioned.

[3] = tested on: Bacillus subtilis (ATCC 6015); experiment: Broth assay for bio-enhancement of antibiotics: viable cell count, Bacillus subtilis
Method: as §2

[4] = tested on: MCF-7 (Breast cancer cell line); experiment: Assay for bio-enhancement of anti-cancer agents: viable cell count after 36 hours; conditions: for Final titre of viable cells upon treatment with taxol-glycyrrhizin combination / Final titre of viable cells upon treatment with taxol alone: initial titre 0.1 × 10^6, 36 hours
Method: as §1

[5] = antibiotic 8 μg/ml + glycyrrhizin 1 μg/ml
[6] = antibiotic 4 μg/ml + glycyrrhizin 1 μg/ml

CC1(C)S[C@@H]2[C@H](NC(=O)[C@H](N)c3ccccc3)C(=O)N2[C@H]1C(=O)O [Ampicillin]
Survival fraction of viable cells upon treatment with antibiotic alone (a) ([1]; antibiotic 6 μg/ml): 0.38
Survival fraction of viable cells upon treatment with antibiotic- glycyrrhizin combination (b) ([1]; antibiotic 6 μg/ml + glycyrrhizin 1 μg/ml): 0.03
*Folds enhancement in antibiotic activity (a/b) ([1]; antibiotic 6 μg/ml): 12.6 folds
Survival fraction of viable cells upon treatment with antibiotic alone (a) ([1]; antibiotic 8 μg/ml): 0.013
Survival fraction of viable cells upon treatment with antibiotic- glycyrrhizin combination (b) [1, 5]: 0.006
*Folds enhancement in antibiotic activity (a/b) ([1]; antibiotic 8 μg/ml): 2.1 folds

CCn1cc(C(=O)O)c(=O)c2ccc(C)nc21 [Nalidixic acid]
Survival fraction of viable cells upon treatment with antibiotic alone (a) ([1]; antibiotic 8 μg/ml): 0.19
Survival fraction of viable cells upon treatment with antibiotic- glycyrrhizin combination (b) [1, 5]: 0.02
*Folds enhancement in antibiotic activity (a/b) ([1]; antibiotic 8 μg/ml): 9.5 folds
Survival fraction of viable cells upon treatment with antibiotic alone (a) ([2]; antibiotic 4 μg/ml): 0.70
Survival fraction of viable cells upon treatment with antibiotic- glycyrrhizin combination (b) [2, 6]: 0.12
*Folds enhancement in antibiotic activity (a/b) ([2]; antibiotic 4 μg/ml): 7.7 folds
Survival fraction of viable cells upon treatment with antibiotic alone (a) ([3]; Table 2, antibiotic 6 μg/ml): 0.50
Survival fraction of viable cells upon treatment with antibiotic- glycyrrhizin combination (b) ([3]; Table 2, antibiotic 6 μg/ml + glycyrrhizin 1 μg/ml): 0.11
*Folds enhancement in antibiotic activity (a/b) ([3]; Table 2, antibiotic 6 μg/ml, glycyrrhizin 1 μg/ml): 4.50 folds
Survival fraction of viable cells upon treatment with antibiotic alone (a) ([3]; Table 2, antibiotic 8 μg/ml): 0.27
Survival fraction of viable cells upon treatment with antibiotic- glycyrrhizin combination (b) ([3]; Table 2, antibiotic 8 μg/ml + glycyrrhizin 1 μg/ml): 0.04
*Folds enhancement in antibiotic activity (a/b) ([3]; Table 2, antibiotic 8 μg/ml, glycyrrhizin 1 μg/ml): 6.75 folds
Survival fraction of viable cells upon treatment with antibiotic alone (a) ([3]; Table 11, antibiotic 6 μg/ml): 0.500
Survival fraction of viable cells upon treatment with antibiotic glycyrrhizic acid combination (b) ([3]; Table 11, antibiotic 6 μg/ml + licorice 25 μg/ml): 0.121
*Folds enhancement in antibiotic activity (a/b) ([3]; Table 11, antibiotic 6 μg/ml, licorice 25 μg/ml): 4.10 folds

CN(C)[C@@H]1C(O)=C(C(N)=O)C(=O)[C@@]2(O)C(O)=C3C(=O)c4c(O)cccc4[C@@](C)(O)[C@H]3C[C@@H]12 [Tetracycline]
Survival fraction of viable cells upon treatment with antibiotic alone (a) ([1]; antibiotic 2 μg/ml): 0.42
Survival fraction of viable cells upon treatment with antibiotic- glycyrrhizin combination (b) ([1]; antibiotic 2 μg/ml + glycyrrhizin 1 μg/ml): 0.22
*Folds enhancement in antibiotic activity (a/b) ([1]; antibiotic 2 μg/ml): 1.9 folds
Survival fraction of viable cells upon treatment with antibiotic alone (a) ([1]; antibiotic 4 μg/ml): 0.27
Survival fraction of viable cells upon treatment with antibiotic- glycyrrhizin combination (b) [1, 6]: 0.03
*Folds enhancement in antibiotic activity (a/b) ([1]; antibiotic 4 μg/ml): 9.0 folds
Survival fraction of viable cells upon treatment with antibiotic alone (a) ([2]; antibiotic 0.5 μg/ml): 0.3
Survival fraction of viable cells upon treatment with antibiotic- glycyrrhizin combination (b) ([2]; antibiotic 0.5 μg/ml + glycyrrhizin 1 μg/ml): 0.2
*Folds enhancement in antibiotic activity (a/b) ([2]; antibiotic 0.5 μg/ml): 1.5 folds
Survival fraction of viable cells upon treatment with antibiotic alone (a) ([3]; Table 2, antibiotic 1 μg/ml): 0.10
Survival fraction of viable cells upon treatment with antibiotic- glycyrrhizin combination (b) ([3]; Table 2, antibiotic 1 μg/ml + glycyrrhizin 1 μg/ml): 0.02
*Folds enhancement in antibiotic activity (a/b) ([3]; Table 2, antibiotic 1 μg/ml, glycyrrhizin 1 μg/ml): 5.00 folds

CC(=O)O[C@H]1C(=O)[C@@]2(C)[C@H]([C@H](OC(=O)c3ccccc3)[C@]3(O)C[C@H](OC(=O)[C@H](O)[C@@H](NC(=O)c4ccccc4)c4ccccc4)C(C)=C1C3(C)C)[C@]1(OC(C)=O)CO[C@@H]1C[C@@H]2O [Taxol, Paclitaxel (Taxol)]
Cancerous cells growth inhibition by Taxol in presence of glycyrrhizin, compared with taxol alone ([4]; Taxol 0.01 μg/ml + glycyrrhizin 1 μg/ml versus taxol 0.05 μg/ml alone): higher than even the treatment with taxol (@ 0.05 μg/ml) alone
Final titre of viable cells upon treatment with taxol-glycyrrhizin combination ([4]; taxol 0.01 μg/ml + glycyrrhizin 1 μg/ml): 0.025 × 10^6 per ml
Final titre of viable cells upon treatment with taxol alone ([4]; taxol 0.01 μg/ml): 0.05 × 10^−6 per ml
Final titre of viable cells upon treatment with taxol-glycyrrhizin combination ([4]; taxol 0.02 μg/ml + glycyrrhizin 1 μg/ml): 0.024 × 10^6 per ml
Final titre of viable cells upon treatment with taxol alone ([4]; taxol 0.02 μg/ml): 0.04 × 10^−6 per ml
Final titre of viable cells upon treatment with taxol-glycyrrhizin combination ([4]; taxol 0.05 μg/ml + glycyrrhizin 1 μg/ml): 0.021 × 10^6 per ml
Final titre of viable cells upon treatment with taxol alone ([4]; taxol 0.05 μg/ml): 0.03 × 10^−6 per ml
Enhancement of anticancerous activity (inhibiting growth and multiplication of MCF-7 cells) by glycyrrhizin ([4]; taxol with glycyrrhizin 1 μg/ml): at least 5 folds
